Reference: patent US20220142958A1, “MEDICINAL COMPOSITION HAVING EXCELLENT STABILITY” (EA Pharma Co., Ltd., priority 2019, published 2022)

Key:
[1] = system: SHPT patients on maintenance hemodialysis; test: Phase I/II clinical trial, repeated administration; format: in vivo, human; settings: for percentage decrease in the serum iPTH concentration: Day 22 (three days after the ninth administration)
Experimental: (§1) Targeting SHPT patients on maintenance hemodialysis, pharmacokinetics, pharmacodynamics and safety upon single or repeated intravenous administration of Compound A1 were examined by conducting a double-blind test using a placebo as a control.
Repeated administration: Based on the clinically effective dose calculated in Reference Example 5, the doses were given in 3 steps, namely, 0.05 mg, 0.1 mg, and 0.2 mg. The trial drug was (intravenously) infused from the venous side of the dialysis circuit before the end of dialysis three times a week for 22 days (total of 9 times) starting from the first day of administration of the trial drug. Here, the trial drug was administered by diluting a required dose taken from the Compound A1 vial formulation prepared as follows with sterilized water for injection, and filling a syringe with the resultant in accordance with the dose to be administered.
(§2) Each item was evaluated according to the predetermined evaluation schedule.
(§3) A vial formulation encapsulating 1 mg of Compound A1 in terms of a dehydrate, and sodium chloride, disodium hydrogen phosphate dodecahydrate, and sodium dihydrogen phosphate dihydrate as additives in 10 ml of sterilized water for injection

[2] = Non-clinical studies of excretion and elimination (normal rat); format: in vivo
[3] = system: SHPT patients on maintenance hemodialysis; test: Phase I/II clinical trial, single administration; format: in vivo, human; settings: for percentage decrease in the serum iPTH concentration: 66 hours after the administration
Experimental: as §1
Single administration: Based on the clinically effective dose calculated in Reference Example 5, the doses were given at 0.025 mg, 0.05 mg, 0.1 mg, 0.2 mg, 0.4 mg, 0.6 mg, and 0.8 mg (7 steps). On the day of trial drug administration, the trial drug was intravenously administered as slow as possible within 60 seconds 2 to 4 hours following the end of dialysis. Here, the trial drug was administered by diluting a required dose taken from the Compound A1 vial formulation prepared as follows with sterilized water for injection, and filling a syringe with the resultant in accordance with the dose to be administered.
as §2, §3

## Cc1c(Cl)cc(S(=O)(=O)[O-])cc1NC(=O)NC[C@H](N)C(=O)O.[Na+] [Compound A1, sodium 3-{[(2S)-2-amino-2-carboxyethyl]carbamoylamino}-5-chloro-4-methylbenzenesulfonate]
[1]; 0.05 mg dose group
  percentage decrease in the serum iPTH concentration: 8%
[1]; 0.1 mg dose group
  percentage decrease in the serum iPTH concentration: 25%
[1]; 0.2 mg dose group
  percentage decrease in the serum iPTH concentration: 36%
[1]; repeated administration
  accumulating property: no accumulating property
  elimination by dialysis: rapidly eliminated by dialysis
  trough concentration before the dialysis following the longest interval: generally constant
[1]; repeated administration, 0.05 mg dose group (mild)
  decrease in the corrected Ca: observed
[1]; repeated administration, 0.1 mg dose group
  decrease in the corrected Ca: not observed
[1]; repeated administration, 0.2 mg dose group (mild)
  decrease in the corrected Ca: observed
[1]; repeated administration, three times a week for 22 days
  form present in the plasma: mainly as an unchanged substance
[2]; intravenously administered to a normal rat
  elimination from the plasma: rapidly eliminated
[2]; non-clinical studies
  main route of excretion: renal excretion
[3]; 0.025 mg dose group
  percentage decrease in the serum iPTH concentration: 27%
[3]; 0.05 mg dose group
  percentage decrease in the serum iPTH concentration: 48%
[3]; 0.1 mg dose group
  percentage decrease in the serum iPTH concentration: 44%
[3]; 0.2 mg dose group
  percentage decrease in the serum iPTH concentration: 57%
[3]; 0.4 mg dose group
  percentage decrease in the serum iPTH concentration: 78%
[3]; 0.6 mg dose group
  percentage decrease in the serum iPTH concentration: 69%
[3]; 0.8 mg dose group
  percentage decrease in the serum iPTH concentration: 66%
[3]; single administration, just before the dialysis
  time the serum iPTH lowering effect continued after the administration: up to 66 hours
[3]; single administration, observed in the 0.4 mg and higher dose groups
  vomiting: non-severe and mild
[3]; single administration, observed in the 0.6 mg and higher dose groups
  nausea: non-severe and mild
[3]; single i.v. 0.025 to 0.8 mg, relation to dose
  Cmax and AUC in plasma: increased with the increase in the given dose
